# PubChem BioAssay (NCI)
#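 Method: 48-hour compound exposure of cells in 96-well plates, five concentrations, linear interpolation of endpoints. Definition used: TGI = concentration required for complete inhibition of growth.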
# Assays:
# Test in all cases: DTP human tumour cell line panel, 48 h
# 786-0 renal = tested on: 786-0 renal
# A549 NSCLC = tested on: A549 NSCLC
# ACHN renal = tested on: ACHN renal
# BT-549 breast = tested on: BT-549 breast
# CAKI-1 renal = tested on: CAKI-1 renal
# CCRF-CEM leukemia = tested on: CCRF-CEM leukemia
# DU-145 prostate = tested on: DU-145 prostate
# EKVX NSCLC = tested on: EKVX NSCLC
# HCT-116 colon = tested on: HCT-116 colon
# HCT-15 colon = tested on: HCT-15 colon
# HL-60(TB) leukemia = tested on: HL-60(TB) leukemia
# HOP-62 NSCLC = tested on: HOP-62 NSCLC
# HOP-92 NSCLC = tested on: HOP-92 NSCLC
# HS 578T breast = tested on: HS 578T breast
# HT29 colon = tested on: HT29 colon
# IGROV1 ovarian = tested on: IGROV1 ovarian
# K-562 leukemia = tested on: K-562 leukemia
# KM12 colon = tested on: KM12 colon
# LOX IMVI melanoma = tested on: LOX IMVI melanoma
# M14 melanoma = tested on: M14 melanoma
# MALME-3M melanoma = tested on: MALME-3M melanoma
# MCF7 breast = tested on: MCF7 breast
# MDA-MB-231 breast = tested on: MDA-MB-231 breast
# MDA-MB-435 = tested on: MDA-MB-435
# MDA-N = tested on: MDA-N
# MOLT-4 leukemia = tested on: MOLT-4 leukemia
# NCI-H226 lung = tested on: NCI-H226 lung
# NCI-H23 lung = tested on: NCI-H23 lung
# NCI-H460 lung = tested on: NCI-H460 lung
# NCI-H522 lung = tested on: NCI-H522 lung
# OVCAR-3 ovarian = tested on: OVCAR-3 ovarian
# OVCAR-4 ovarian = tested on: OVCAR-4 ovarian
# OVCAR-5 ovarian = tested on: OVCAR-5 ovarian
# OVCAR-8 ovarian = tested on: OVCAR-8 ovarian
# PC-3 prostate = tested on: PC-3 prostate
# RPMI-8226 leukemia = tested on: RPMI-8226 leukemia
# RXF 393 renal = tested on: RXF 393 renal
# SF-268 CNS = tested on: SF-268 CNS
# SF-295 CNS = tested on: SF-295 CNS
# SK-MEL-2 melanoma = tested on: SK-MEL-2 melanoma
# SK-MEL-28 melanoma = tested on: SK-MEL-28 melanoma
# SK-MEL-5 melanoma = tested on: SK-MEL-5 melanoma
# SN12C renal = tested on: SN12C renal
# SNB-19 CNS = tested on: SNB-19 CNS
# SR leukemia = tested on: SR leukemia
# SW-620 colon = tested on: SW-620 colon
# T-47D breast = tested on: T-47D breast
# TK-10 renal = tested on: TK-10 renal
# U251 CNS = tested on: U251 CNS
# UACC-257 melanoma = tested on: UACC-257 melanoma
# UACC-62 melanoma = tested on: UACC-62 melanoma
# UO-31 renal = tested on: UO-31 renal
# A498 renal = tested on: A498 renal
# COLO 205 colon = tested on: COLO 205 colon
# HCC-2998 colon = tested on: HCC-2998 colon
# NCI/ADR-RES ovarian = tested on: NCI/ADR-RES ovarian
# SF-539 CNS = tested on: SF-539 CNS
# SK-OV-3 ovarian = tested on: SK-OV-3 ovarian
# SNB-75 CNS = tested on: SNB-75 CNS
structure (smiles),measurement,setting,value
C=C1C[C@@H](O)[C@@H](Br)C(C)(C)[C@@]12C=CC(O)(CBr)CC2 (stereo not given in full),TGI,786-0 renal,> 100 µM
same,TGI,A549 NSCLC,> 100 µM
same,TGI,ACHN renal,> 100 µM
same,TGI,BT-549 breast,83.7 µM
same,TGI,CAKI-1 renal,> 100 µM
same,TGI,CCRF-CEM leukemia,64.2 µM
same,TGI,DU-145 prostate,> 100 µM
same,TGI,EKVX NSCLC,79.2 µM
same,TGI,HCT-116 colon,> 100 µM
same,TGI,HCT-15 colon,> 100 µM
same,TGI,HL-60(TB) leukemia,> 100 µM
same,TGI,HOP-62 NSCLC,> 100 µM
same,TGI,HOP-92 NSCLC,61 µM
same,TGI,HS 578T breast,> 100 µM
same,TGI,HT29 colon,> 100 µM
same,TGI,IGROV1 ovarian,> 100 µM
same,TGI,K-562 leukemia,> 100 µM
same,TGI,KM12 colon,15.1 µM
same,TGI,LOX IMVI melanoma,> 100 µM
same,TGI,M14 melanoma,> 100 µM
same,TGI,MALME-3M melanoma,> 100 µM
same,TGI,MCF7 breast,> 100 µM
same,TGI,MDA-MB-231 breast,93.5 µM
same,TGI,MDA-MB-435,> 100 µM
same,TGI,MDA-N,> 100 µM
same,TGI,MOLT-4 leukemia,76.2 µM
same,TGI,NCI-H226 lung,> 100 µM
same,TGI,NCI-H23 lung,> 100 µM
same,TGI,NCI-H460 lung,> 100 µM
same,TGI,NCI-H522 lung,> 100 µM
same,TGI,OVCAR-3 ovarian,> 100 µM
same,TGI,OVCAR-4 ovarian,> 100 µM
same,TGI,OVCAR-5 ovarian,> 100 µM
same,TGI,OVCAR-8 ovarian,> 100 µM
same,TGI,PC-3 prostate,9.72 µM
same,TGI,RPMI-8226 leukemia,70.7 µM
same,TGI,RXF 393 renal,> 100 µM
same,TGI,SF-268 CNS,> 100 µM
same,TGI,SF-295 CNS,> 100 µM
same,TGI,SK-MEL-2 melanoma,> 100 µM
same,TGI,SK-MEL-28 melanoma,> 100 µM
same,TGI,SK-MEL-5 melanoma,> 100 µM
same,TGI,SN12C renal,> 100 µM
same,TGI,SNB-19 CNS,> 100 µM
same,TGI,SR leukemia,77.6 µM
same,TGI,SW-620 colon,> 100 µM
same,TGI,T-47D breast,> 100 µM
same,TGI,TK-10 renal,> 100 µM
same,TGI,U251 CNS,> 100 µM
same,TGI,UACC-257 melanoma,> 100 µM
same,TGI,UACC-62 melanoma,> 100 µM
same,TGI,UO-31 renal,> 100 µM
CCCCCC(/C=C/C1CCC(=O)C1)OCOCCOC (stereo not given),TGI,786-0 renal,42.5 µM
same,TGI,A498 renal,99.3 µM
same,TGI,A549 NSCLC,> 100 µM
same,TGI,ACHN renal,58.6 µM
same,TGI,BT-549 breast,> 71 µM
same,TGI,CAKI-1 renal,> 76.9 µM
same,TGI,CCRF-CEM leukemia,> 92.2 µM
same,TGI,COLO 205 colon,> 100 µM
same,TGI,DU-145 prostate,> 100 µM
same,TGI,EKVX NSCLC,> 100 µM
same,TGI,HCC-2998 colon,> 100 µM
same,TGI,HCT-116 colon,> 73.6 µM
same,TGI,HCT-15 colon,> 100 µM
same,TGI,HL-60(TB) leukemia,> 100 µM
same,TGI,HOP-62 NSCLC,> 100 µM
same,TGI,HOP-92 NSCLC,84.5 µM
same,TGI,HT29 colon,67.5 µM
same,TGI,IGROV1 ovarian,> 100 µM
same,TGI,K-562 leukemia,> 86.7 µM
same,TGI,KM12 colon,> 100 µM
same,TGI,LOX IMVI melanoma,> 71 µM
same,TGI,M14 melanoma,> 100 µM
same,TGI,MALME-3M melanoma,> 100 µM
same,TGI,MCF7 breast,> 100 µM
same,TGI,MDA-MB-231 breast,> 100 µM
same,TGI,MDA-MB-435,> 100 µM
same,TGI,MDA-N,> 100 µM
same,TGI,MOLT-4 leukemia,44.5 µM
same,TGI,NCI-H226 lung,> 100 µM
same,TGI,NCI-H23 lung,> 100 µM
same,TGI,NCI-H460 lung,> 100 µM
same,TGI,NCI-H522 lung,36 µM
same,TGI,NCI/ADR-RES ovarian,99.2 µM
same,TGI,OVCAR-3 ovarian,> 100 µM
same,TGI,OVCAR-4 ovarian,> 100 µM
same,TGI,OVCAR-5 ovarian,> 100 µM
same,TGI,OVCAR-8 ovarian,> 95.4 µM
same,TGI,PC-3 prostate,> 100 µM
same,TGI,RPMI-8226 leukemia,60.3 µM
same,TGI,RXF 393 renal,> 100 µM
same,TGI,SF-268 CNS,> 71.7 µM
same,TGI,SF-295 CNS,> 100 µM
same,TGI,SF-539 CNS,46.3 µM
same,TGI,SK-MEL-2 melanoma,> 100 µM
same,TGI,SK-MEL-28 melanoma,> 100 µM
same,TGI,SK-MEL-5 melanoma,> 100 µM
same,TGI,SK-OV-3 ovarian,> 100 µM
same,TGI,SN12C renal,> 100 µM
same,TGI,SNB-19 CNS,> 100 µM
same,TGI,SNB-75 CNS,57.8 µM
same,TGI,SR leukemia,> 81.8 µM
same,TGI,SW-620 colon,> 81.8 µM
same,TGI,T-47D breast,> 100 µM
same,TGI,TK-10 renal,> 100 µM
same,TGI,U251 CNS,> 100 µM
same,TGI,UACC-257 melanoma,> 66.7 µM
same,TGI,UACC-62 melanoma,> 100 µM
same,TGI,UO-31 renal,58.5 µM
N#Cc1c(-c2ccc(Cl)cc2)cc(-c2ccc(Nc3ccnc4cc(C(F)(F)F)ccc34)cc2)nc1N,TGI,786-0 renal,38.4 µM
same,TGI,A498 renal,33.8 µM
same,TGI,A549 NSCLC,> 100 µM
same,TGI,ACHN renal,36.8 µM
same,TGI,BT-549 breast,> 100 µM
same,TGI,CAKI-1 renal,> 100 µM
same,TGI,CCRF-CEM leukemia,56.5 µM
same,TGI,COLO 205 colon,> 100 µM
same,TGI,DU-145 prostate,> 100 µM
same,TGI,EKVX NSCLC,> 100 µM
same,TGI,HCC-2998 colon,> 100 µM
same,TGI,HCT-116 colon,22.4 µM
same,TGI,HCT-15 colon,38.4 µM
same,TGI,HOP-62 NSCLC,42.9 µM
same,TGI,HT29 colon,31.5 µM
same,TGI,IGROV1 ovarian,> 100 µM
same,TGI,K-562 leukemia,46.9 µM
same,TGI,KM12 colon,> 100 µM
same,TGI,LOX IMVI melanoma,> 100 µM
same,TGI,M14 melanoma,49.6 µM
same,TGI,MALME-3M melanoma,> 100 µM
same,TGI,MCF7 breast,> 100 µM
same,TGI,MDA-MB-231 breast,71.2 µM
same,TGI,MDA-MB-435,42.7 µM
same,TGI,MDA-N,> 100 µM
same,TGI,MOLT-4 leukemia,37.5 µM
same,TGI,NCI-H226 lung,51.1 µM
same,TGI,NCI-H23 lung,> 100 µM
same,TGI,NCI-H460 lung,> 100 µM
same,TGI,NCI-H522 lung,75.9 µM
same,TGI,NCI/ADR-RES ovarian,> 100 µM
same,TGI,OVCAR-4 ovarian,42 µM
same,TGI,OVCAR-5 ovarian,88.2 µM
same,TGI,OVCAR-8 ovarian,> 100 µM
same,TGI,PC-3 prostate,> 100 µM
same,TGI,RPMI-8226 leukemia,> 100 µM
same,TGI,RXF 393 renal,64.5 µM
same,TGI,SF-268 CNS,> 100 µM
same,TGI,SF-295 CNS,38.8 µM
same,TGI,SF-539 CNS,33.2 µM
same,TGI,SK-MEL-2 melanoma,62.4 µM
same,TGI,SK-MEL-28 melanoma,48.2 µM
same,TGI,SK-MEL-5 melanoma,> 100 µM
same,TGI,SK-OV-3 ovarian,> 100 µM
same,TGI,SN12C renal,59 µM
same,TGI,SNB-19 CNS,30.6 µM
same,TGI,SNB-75 CNS,46.2 µM
same,TGI,SR leukemia,16.4 µM
same,TGI,SW-620 colon,> 100 µM
same,TGI,T-47D breast,43.2 µM
same,TGI,TK-10 renal,81.4 µM
same,TGI,U251 CNS,38 µM
same,TGI,UACC-257 melanoma,> 100 µM
same,TGI,UACC-62 melanoma,37.8 µM
same,TGI,UO-31 renal,34.3 µM
